Reference: patent US8586719B2, “Triterpenes for modulating gene expression and cell membrane, and as antiprotozoal agents” (Pacific Arrow Limited, priority 2005, dated 2013)
Converted amounts (≈) assume the structure as drawn. Where two headings read alike, the source gives them in different places.

Columns and labels:
[1] = test system: Leishmania Major (promastigotes); test: Cell growth of Leishmania parasites by MTT assay; format: cell-based; conditions: for IC50: Leishmania major, read-out: IC50, cytotoxic to Leishmania Major (promastigotes)
Method: Method: Leishmania parasites (Leishmania major: MRHO/SU/59/P/LV39) were grown in culture medium in a T75 flask at room temperature. Promastigotes of Leishmania major (approximately 40 million per ml) were used in the experiment. 1.2 ml cell culture was transferred to a well of the 24-wells plate. Saponin Y10 (0.2 ml in medium) with different concentrations (final 6.25-200 ug/ml) was added to culture and cells were grown for 1-5 days at room temperature. At the end of drug-treatment, 150 ul of MTT (5 mg/ml in PBS) was added to each well and incubated for 4 hours. Formazan formed in cells was dissolved with DMSO and the OD at 490 nm was determined by an ELISA reader.

Fibronectin [2] = test: Fibronectin secretion from ES2 cells; format: cell-based, human
Method: (§1) Reduction of Fibronectin secretion from ES2 cells after xanifolia-Y treatment. • (Results of F1, F3, F4, F5, F7, F8, F11, F12A, F15, F16, F17) Data in PCT/US2008/002086, 1188-ALA-PCT, filed Feb. 15, 2008 are incorporated herein by reference • (F11) For lung carcinoma cells (H460), at concentration of 20 ug/ml, there are inhibitions of Fibronectin secretion ranged from 20-60%. • (F12A) For bladder carcinoma cells (HTB-9), Xanifolia-Y (10 ug/ml) inhibits 50% of Fibronectin secretion. • (F15) In liver HepG2 cells. 10 ug/ml of xanifolia-Y inhibits 42% secretion of Fibronectin. • (F16) Incubation of brain glioblastoma T98G cells with 10 ug/ml of xanifolia-Y inhibits 27% Fibronectin secretion and with 20 ug/ml Y inhibits 74% Fibronectin secretion. • (F17) For skin SK-MeI-5 cells, the inhibition is 40-57% with 20 ug/ml of Xanifolia-Y.

Fibronectin [3] = test: Fibronectin secretion, lung carcinoma cells (H460); format: cell-based, human; conditions: Lung H460; concentration 10 (label suffix)
Method: as §1

Fibronectin [4] = test: Fibronectin secretion, bladder carcinoma cells (HTB-9); format: cell-based, human; conditions: Bladder HTB-9; 10 ug/ml (table: label suffix -10)
Method: as §1

Fibronectin [5] = test: Fibronectin secretion, liver HepG2 cells; format: cell-based, human; conditions: 10 ug/ml (table: label suffix -10)
Method: as §1

Fibronectin [6] = test: Fibronectin secretion, brain glioblastoma T98G cells; format: cell-based, human; conditions: Brain T98G; 10 ug/ml (table: label suffix -10)
Method: as §1

Fibronectin [7] = test: Fibronectin secretion, skin SK-MEL-5 cells; format: cell-based, human; conditions: Skin SK-MEL-5; concentration 10 (label suffix)
Method: as §1

cancer cells = test: Anticancer activity of alkaline-hydrolysed saponins (cells not stated); format: cell-based; conditions: after removal of acyl groups by alkaline hydrolysis
[8] = concentration 10 (label suffix; text uses ug/ml)

C/C=C(/C)C(=O)O[C@H]1[C@H](OC(=O)/C(C)=C\C)[C@@]2(CO)C(CC1(C)C)C1=CCC3[C@@]4(C)CC[C@H](O[C@@H]5OC(C(=O)O)[C@@H](O)C(O)C5O[C@@H]5OC(CO)[C@H](O)C(O)C5O)C(C)(C)C4CC[C@@]3(C)[C@]1(C)[C@@H](O)[C@H]2O (stereo partly shown) [Y5]
IC50, cytotoxic to Leishmania Major (promastigotes) ([1]; MTT assay, promastigotes): 16 µg/mL (≈ 15.9 µM)

C/C=C(/C)C(=O)O[C@H]1[C@H](O)[C@@]2(COC(=O)C(C)CC)C(CC1(C)C)C1=CCC3[C@@]4(C)CC[C@H](O[C@@H]5OC(C(=O)O)[C@@H](O)C(O[C@@H]6O[C@@H](CO)C(O)C6O)C5O[C@@H]5OC(CO)[C@H](O)C(O)C5O)C(C)(C)C4CC[C@@]3(C)[C@]1(C)[C@@H](O)[C@H]2O (stereo partly drawn) [Y7, 3-O-[β-D-galactopyranosyl-(1→2)]-α-L-arabinofuranosyl-(1→3)-β-D-glucuronopyranosyl-21-O-angeloyl-28-O-2-methylbutanoyl-3β, 15α, 16α, 21β, 22α, 28-hexahydroxyolean-12-ene]
IC50, cytotoxic to Leishmania Major (promastigotes) ([1]; MTT assay, promastigotes): 18 µg/mL (≈ 15.7 µM) | % inhibition of Fibronectin secretion (Fibronectin [2]; [8]): 34%

C/C=C(/C)C(=O)O[C@H]1[C@H](OC(=O)C(C)C)[C@@]2(CO)C(CC1(C)C)C1=CCC3[C@@]4(C)CC[C@H](O[C@@H]5OC(C(=O)O)[C@@H](O)C(O[C@@H]6O[C@@H](CO)C(O)C6O)C5O[C@@H]5OC(CO)[C@H](O)C(O)C5O)C(C)(C)C4CC[C@@]3(C)[C@]1(C)[C@@H](O)[C@H]2O (stereo partly drawn) [Y0, 3-O-[β-D-galactopyranosyl(1→2)]-α-L-arabinofuranosyl(1→3)-β-D-glucuronopyranosyl-21-O-angeloyl, 22-O-(2-methylpropanoyl)-3β, 15α, 16α, 21β, 22α, 28-hexahydroxyolean-12-ene]
IC50, cytotoxic to Leishmania Major (promastigotes) ([1]; MTT assay, promastigotes): 25 µg/mL (≈ 22.1 µM) | % inhibition of Fibronectin secretion (Fibronectin [2]; [8]): 34%

CC=C(C)C(=O)OC1C(OC(=O)C(C)=CC)C23C(O)CC4(C)C5(C)CCC6C(C)(C)C(OC7OC(C(=O)O)C(O)C(OC8OC(CO)C(O)C(O)C8OC8OC(C)C(O)C(O)C8OC8OC(C)C(O)C(O)C8O)C7OC7OC(CO)C(O)C(O)C7O)CCC6(C)C5CCC4(OC2O)C3CC1(C)C (stereo not shown) [Mb5]
IC50, cytotoxic to Leishmania Major (promastigotes) ([1]; MTT assay, promastigotes): 15 µg/mL (≈ 10.2 µM) | % inhibition of Fibronectin secretion (Fibronectin [2]; [8]): 35% | % inhibition of Fibronectin secretion (Fibronectin [3]): 25% | % inhibition of Fibronectin secretion (Fibronectin [4]): 28% | % inhibition of Fibronectin secretion (Fibronectin [5]): 35% | % inhibition of Fibronectin secretion (Fibronectin [6]): 33% | % inhibition of Fibronectin secretion (Fibronectin [7]): 15%

CC1(C)CC2C3=CCC4[C@@]5(C)CC[C@H](O[C@@H]6OC(C(=O)O)[C@@H](O)[C@@H](O[C@@H]7O[C@@H](CO)C(O)[C@@H]7O)C6O[C@@H]6OC(CO)[C@H](O)[C@@H](O)C6O)C(C)(C)C5CC[C@@]4(C)[C@]3(C)[C@@H](O)[C@@H](O)[C@@]2(CO)[C@@H](O)[C@@H]1O (stereo partly shown) [AKOH-Y]
anticancer activity (cancer cells): lost anticancer activity | cytotoxic to Leishmania Major (promastigotes) ([1]; MTT assay, promastigotes): not cytotoxic

CC=C(C)C(=O)OC1C(OC(=O)c2ccccc2)C(C)(C)CC2C3=CCC4C5(C)CCC(OC6OC(C(=O)OC)C(O)C(OC7OCC(O)C(O)C7O)C6OC6OC(CO)C(O)C(O)C6O)C(C)(C)C5CCC4(C)C3(C)CC(O)C21CO (stereo not shown) [Ba4]
% inhibition of Fibronectin secretion (Fibronectin [2]; [8]): 28% | % inhibition of Fibronectin secretion (Fibronectin [3]): 18% | % inhibition of Fibronectin secretion (Fibronectin [4]): 30% | % inhibition of Fibronectin secretion (Fibronectin [5]): 28% | % inhibition of Fibronectin secretion (Fibronectin [6]): 24% | % inhibition of Fibronectin secretion (Fibronectin [7]): 10%

C/C=C(/C)C(=O)O[C@@H]1C(O)[C@H](O[C@H]2[C@H](OC(C)=O)[C@@]3(CO)C(CC2(C)C)C2=CCC4[C@@]5(C)CC[C@H](O[C@@H]6OC(C(=O)O)[C@@H](O)[C@@H](O[C@@H]7O[C@@H](CO)[C@@H](O)C7O)C6O[C@@H]6OC(CO)[C@H](O)[C@@H](O)C6O)C(C)(C)C5CC[C@@]4(C)[C@]2(C)C[C@H]3O)OC(C)[C@@H]1OC(=O)/C(C)=C\C (stereo partly drawn) [Y1, 3-O-[β-D-galactopyranosyl (1→2)]-α-L-arabinofuranosyl(1→3)-β-D-glucuronopyranosyl-21-O-(3,4-diangeloyl)-α-L-rhamnophyranosyl-22-O-acetyl-3β,16α, 21β, 22α, 28-pentahydroxyolean-12-ene]
IC50 [1]: 23 µg/mL (≈ 17.5 µM)

C/C=C(/C)C(=O)O[C@H]1[C@H](OC(C)=O)C(C)(C)CC2C3=CCC4[C@@]5(C)CC[C@H](O[C@@H]6OC(C(=O)OCCCC)[C@@H](O)C(O[C@@H]7O[C@@H](CO)C(O)C7O)C6O[C@@H]6OC(CO)[C@H](O)C(O)C6O)C(C)(C)C5CC[C@@]4(C)[C@]3(C)C[C@@H](O)[C@]21CO (stereo partly drawn) [X, 3-O-{[β-D-galactopyranosyl(1→2)]-[α-L-arabinofuranosyl(1→3)]-β-D-glucuronopyranosidebutyl ester}-21-O-acetyl-22-O-angeloyl-3β,16α, 21β,22α, 28-pentahydroxyolean-12-ene]
% inhibition of Fibronectin secretion (Fibronectin [2]; [8]): 39%

C/C=C(/C)C(=O)O[C@H]1[C@H](OC(=O)/C(C)=C\C)[C@@]23C(CC1(C)C)[C@]1(CCC4[C@@]5(C)CC[C@H](O)C(C)(C)C5CC[C@@]4(C)[C@]1(C)C[C@H]2O)O[C@@H]3O (stereo partly shown) [ACH-Mb5]
IC50 ([1]; MTT assay, promastigotes): 18 µg/mL (≈ 26.8 µM)

CC1O[C@@H](OC2[C@H](OC3[C@H](O[C@H]4C(O[C@@H]5OC(CO)[C@H](O)[C@@H](O)C5O)[C@H](O[C@H]5CC[C@@]6(C)C(CC[C@]7(C)C6CC[C@]68O[C@H](O)[C@]9(C6CC(C)(C)[C@@H](O)[C@@H]9O)[C@H](O)C[C@]87C)C5(C)C)OC(C(=O)O)[C@H]4O)OC(CO)[C@H](O)[C@H]3O)OC(C)[C@H](O)[C@@H]2O)C(O)[C@@H](O)[C@H]1O (stereo partly shown) [AKOH-Mb5]
anticancer activity (cancer cells): lost anticancer activity | cytotoxic to Leishmania Major (promastigotes) ([1]; MTT assay, promastigotes): not cytotoxic | % inhibition of Fibronectin secretion (Fibronectin [2]; concentration 40 (label suffix)): No effect

C/C=C(/C)C(=O)O[C@H]1[C@H](OC(=O)/C(C)=C\C)[C@@]2(CO)C(CC1(C)C)C1=CCC3[C@@]4(C)CC[C@H](O[C@@H]5OC(C(=O)O)[C@@H](O)C(O[C@@H]6OC[C@@H](O)C(O)C6O)C5O[C@@H]5OC(CO)[C@H](O)C(O)C5O)C(C)(C)C4CC[C@@]3(C)[C@]1(C)C[C@H]2O (stereo partly drawn) [Ba1, 3-O-[β-D-galactopyranosyl(1→2)]-β-D-xylopyranosyl(1→3)-β-D-glucuronopyranosyl-21-O-angeloyl, 22-O-angeloyl-3β, 15α, 21β, 22α, 28-pentahydroxyolean-12-ene]
IC50, cytotoxic to Leishmania Major (promastigotes) ([1]; MTT assay, promastigotes): 15 µg/mL (≈ 13.3 µM) | % inhibition of Fibronectin secretion (Fibronectin [2]; [8]): 30% | % inhibition of Fibronectin secretion (Fibronectin [3]): 19% | % inhibition of Fibronectin secretion (Fibronectin [4]): 25% | % inhibition of Fibronectin secretion (Fibronectin [5]): 33% | % inhibition of Fibronectin secretion (Fibronectin [6]): 26% | % inhibition of Fibronectin secretion (Fibronectin [7]): 10%

C/C=C(/C)C(=O)O[C@H]1[C@H](OC(=O)/C(C)=C/C)[C@@]2(CO)C(CC1(C)C)C1=CCC3[C@@]4(C)CC[C@H](O[C@@H]5OC(C(=O)O)[C@@H](O)C(O[C@@H]6OC[C@@H](O)C(O)C6O)C5O[C@@H]5OC(CO)[C@H](O)C(O)C5O)C(C)(C)C4CC[C@@]3(C)[C@]1(C)C[C@H]2O (stereo partly drawn) [Z12, 3-O-[β-D-galactopyranosyl(1→2)]-β-D-xylopyranosyl(1→3)-β-D-glucuronopyranosyl-21-O-angeloyl, 22-O-tigloyl-3β, 16α, 21β, 22α, 28-pentahydroxyolean-12-ene]
IC50, cytotoxic to Leishmania Major (promastigotes) ([1]; MTT assay, promastigotes): 23 µg/mL (≈ 20.4 µM)
